Results published in ChEMBL document CHEMBL5725298 (2017).

Test: Anti-HIV Cytoprotection Assay: The in vitro antiviral activity profile for CMX157 was evaluated for cell-type effects and HIV strain effects.

`C[C@H](Cn1cnc2c(N)ncnc21)OCP(=O)(O)OCCCOCCCC(=O)O` and `C[C@H](Cn1cnc2c(N)ncnc21)OCP(=O)(O)OCCCOCC(=O)O` cannot be ordered by EC50: greater than 10 µM for the first, greater than 10 µM for the second.

First: CCCCCCCCCCCCCCCCOCCCOP(=O)(O)CO[C@H](C)Cn1cnc2c(N)ncnc21 [TENOFOVIR EXALIDEX]
Second: C[C@H](Cn1cnc2c(N)ncnc21)OCP(=O)(O)OCCCO
The EC50 of the first is lower: less than 0.03 µM for the first, greater than 10 µM for the second.
